Where “and” joins values, the source holds several entries; their conditions need not be identical. Identical values can stand only once. Like-named read-outs stand apart in the source and are kept apart here.
Assays:
HeLa = assay: MTT cytotoxicity assay, HeLa; assay type: cell-based; conditions: Homo sapiens, read-out: IC50 HeLa
Description: (§1) The xanthones 1–11 were tested for cytotoxicity against HeLa, A549, HCT-116, and HepG-2 human cancer cell lines and inhibition on the proliferation of the HUVEC cell line by using the MTT assay according to the described protocols.

A549 = assay: MTT cytotoxicity assay, A549; assay type: cell-based; conditions: Homo sapiens
Description: as §1

HCT-116 = assay: MTT cytotoxicity assay, HCT-116; assay type: cell-based; conditions: Homo sapiens
Description: as §1

HepG-2 = assay: MTT cytotoxicity assay, HepG-2; assay type: cell-based; conditions: Homo sapiens
Description: as §1

HUVEC cell line = assay: MTT assay, inhibition of proliferation of HUVEC cell line; assay type: cell-based; conditions: Homo sapiens, read-out: IC50 HUVEC
Description: as §1

[1] = system: zebrafish embryos Tg(flk1:EGFP); assay: Antiangiogenic activity assay on blood vessel formation in zebrafish embryos; assay type: in vivo, zebrafish (Danio rerio); conditions: for Antiangiogenic activity to zebrafish embryos: concentrations varying from 1 μM to 16 μM; for Concentration with inhibitory effect on ISV formation (Figure 2): zebrafish embryos, 24 h, effects of 3, 7, 9 comparable to GA
Description: (§2) A transgenic zebrafish line, Tg(flk1:EGFP), with the endothelial- specific flk1 promoter directing enhanced green fluorescent protein (EGFP) expression in all endothelial cells of the vasculature was used. Adult zebrafish were maintained at 28.5 °C in a recirculating aquaculture system. Zebrafish embryos were generated by natural pair-wise mating, collected in the morning and raised at 28.5 °C in embryo water (0.2 g/L of Instant Ocean Salt in distilled water). At 6 h post-fertilization (hpf), the embryos were sorted for viability and developmental stage (shield stage). The embryos were firstly placed in 24-well plates in 1 mL of embryo water with eight embryos per well. Then, the xanthones, at various concentrations, were added to embryo water of each well from the shield stage (about 6 h). Because the fish embryo receives nourishment from an attached yolk ball for the duration of the experiment, no additional maintenance was required during the duration of the experiments. After treatment with the drugs for 24 h, the embryos were anesthetized with 0.05% 2-phenoxyethanol in embryo water. One to three embryos were placed on carry sheet glass and each embryo was examined for the presence of ectopic vessels in the subintestinal vessel plexus (SIV) as an indication of antiangiogenic effect. Photographs were taken under a fluorescence microscope.

zebrafish embryos [2] = assay: Death rates of treated zebrafish embryos; assay type: in vivo, zebrafish (Danio rerio); conditions: for Death Rate: eight embryos per well, control 0; for Concentration that caused the death of all zebrafish embryos: highest concentration tested
Description: as §2

zebrafish embryos [3] = assay: Heart rates of treated zebrafish embryos; assay type: in vivo, zebrafish (Danio rerio)
HUVEC = HUVEC wound migration assay; assay type: cell-based, human; conditions: 0.5 μM, 24 h
Description: The wound migration assay was performed as previously described. HUVECs were seeded at a plating density of 2 × 10^5 per well in 6-well plates which had been coated with 1% gelatin, cells grown in DMEM medium with 10% FBS overnight. After reaching 100% confluence, the cells were then gently scraped with a plastic tip to produce a wound area. After wounding cells were incubated with fresh DMEM medium with xanthones 1, 3, 7 and 9 at a concentration of 0.5 μM, the migration and cell movement throughout the wound area was examined after 24 h.

[4] = MTT assay, 50% inhibition of cell growth
[5] = A549, MTT assay, 50% inhibition of cell growth, read-out: IC50 A549
[6] = HCT-116, MTT assay, 50% inhibition of cell growth, read-out: IC50 HCT-116
[7] = HepG2, MTT assay, 50% inhibition of cell growth, read-out: IC50 HepG-2
[8] = Tg(flk1:EGFP), zebrafish, in vivo, 24 h, 2 μM
[9] = Tg(flk1:EGFP), zebrafish, in vivo, 24 h, 4 μM
[10] = 1 μM, zebrafish embryos, control 21 per 10 s
[11] = 2 μM, zebrafish embryos, control 21 per 10 s
[12] = 4 μM, zebrafish embryos, control 21 per 10 s
[13] = HCT-116, read-out: IC50 HCT-116
[14] = 8 μM, zebrafish embryos, control 21 per 10 s
[15] = Tg(flk1:EGFP), zebrafish, in vivo, 24 h, 8 μM
[16] = Tg(flk1:EGFP), zebrafish, in vivo, 24 h, 16 μM
[17] = Tg(flk1:EGFP), zebrafish, in vivo, 24 h, 32 μM

| Compound | IC50 (HeLa; [4]) | IC50 (A549; [5]) | IC50 (HCT-116; [6]) | IC50 (HepG-2; [7]) | IC50 (HUVEC cell line; [4]) | Antiangiogenic activity to zebrafish embryos [1] | Concentration with inhibitory effect on ISV formation (Figure 2) [1] | Death Rate (zebrafish embryos [2]; 1 μM) | Death Rate (zebrafish embryos [2]; 2 μM) | Death Rate (zebrafish embryos [2]; 4 μM) | Heart Rate (zebrafish embryos [3]; [8]) | Heart Rate (zebrafish embryos [3]; [9]) | Inhibition of the migration of HUVEC (HUVEC) | Heart Rate (zebrafish embryos [3]; [11]) | Heart Rate (zebrafish embryos [3]; [12]) | Death Rate (zebrafish embryos [2]; 8 μM) | Heart Rate (zebrafish embryos [3]; [14]) | Heart Rate (zebrafish embryos [3]; [15]) | further results |
| --- | --- | --- | --- | --- | --- | --- | --- | --- | --- | --- | --- | --- | --- | --- | --- | --- | --- | --- | --- |
| CC(C)=CCC[C@]1(C)C=Cc2c(O)c3c(c(CC=C(C)C)c2O1)O[C@]12C(=C[C@@H]4C[C@H]1C(C)(C)O[C@@]2(C/C=C(/C)C(=O)O)C4=O)C3=O [Xanthone 1, gambogic acid] | 1.59 µM | 1.55 µM | 0.64 µM | 0.78 µM | 0.72 µM | displayed antiangiogenic activity | 1 µM and 2 µM | 0 | 1/8 | 8/8 | 3 per 10 s | 0 per 10 s | remarkable inhibition |  |  |  |  |  | Concentration that caused the death of all zebrafish embryos (zebrafish embryos [2]): 4 µM; Heart Rate (zebrafish embryos [3]; Tg(flk1:EGFP), zebrafish, in vivo, 24 h, 1 μM): 8 per 10 s |
| CC(C)=CCC/C(C)=C/Cc1c(O)c(CC=C(C)C)c2c(c1O)C(=O)C1=C[C@@H]3C[C@H]4C(C)(C)O[C@@](C/C=C(/C)C(=O)O)(C3=O)[C@@]14O2 [Xanthone 2, gambogenic acid] | 11.5 µM | 4.76 µM | 4.76 µM | 6.35 µM | 4.12 µM |  |  | 0 | 0 | 8/8 |  |  |  | 18 per 10 s | 0 per 10 s |  |  |  | Heart Rate (zebrafish embryos [3]; [10]): 21 per 10 s |
| CC(C)=CCc1c2c(c(O)c3c1O[C@]14C(=C[C@@H]5C[C@H]1C(C)(C)O[C@@]4(C/C=C(/C)C(=O)O)C5=O)C3=O)C=CC(C)(C)O2 [Xanthone 3, morellic acid] |  |  |  |  |  | displayed antiangiogenic activity | 4 µM |  | 0 | 0 |  |  | remarkable inhibition | 8 per 10 s | 6 per 10 s | 8/8 | 0 per 10 s |  | IC50 (HeLa): 13.8 µM; IC50 (A549; A549, read-out: IC50 A549): 14.2 µM; IC50 (HCT-116; [13]): 8.89 µM; IC50 (HepG-2; HepG2, read-out: IC50 HepG-2): 13.3 µM; IC50 (HUVEC cell line): 6.14 µM; Concentration that caused the death of all zebrafish embryos (zebrafish embryos [2]): 8 µM |
| CC(C)=CCC/C(C)=C/Cc1c(O)c2c(c3c1O[C@@H](C(C)(C)O)C3)O[C@]13C(=C[C@@H]4C[C@H]1C(C)(C)O[C@@]3(C/C=C(/C)C(=O)O)C4=O)C2=O [Xanthone 4, gambogenific acid] | 7.58 µM | 11.3 µM | 4.49 µM | 10.2 µM | 2.48 µM |  |  |  | 0 | 0 | 21 per 10 s | 17 per 10 s |  |  |  | 0 |  | 13 per 10 s |  |
| CC(C)=CCc1c2c(c(O)c3c1O[C@]14C(=C[C@@H]5C[C@H]1C(C)(C)O[C@@]4(C/C=C(/C)C=O)C5=O)C3=O)C=CC(C)(C)O2 [Xanthone 5, morellin isomers] | 5.33 µM | 6.43 µM | 2.76 µM | 5.97 µM | 2.39 µM |  |  |  | 0 | 0 | 13 per 10 s | 10 per 10 s |  |  |  | 8/8 |  | 8 per 10 s |  |
| CC(C)=CCC/C(C)=C/Cc1c(O)c(CC=C(C)C)c2c(c1O)C(=O)C1=C[C@@H]3C[C@H]4C(C)(C)O[C@@](C/C=C(\C)C=O)(C3=O)[C@@]14O2 [Xanthone 6, isogambogenin] | 4.07 µM | 4.88 µM | 1.47 µM | 2.44 µM | 2.12 µM |  |  |  |  |  |  |  |  |  |  | 0 |  | 17 per 10 s | Death Rate (zebrafish embryos [2]; 16 μM): 1/8; Death Rate (zebrafish embryos [2]; 32 μM): 4/8; Heart Rate (zebrafish embryos [3]; [16]): 14 per 10 s; Heart Rate (zebrafish embryos [3]; [17]): 8 per 10 s |
| CC(C)=CCC/C(C)=C/Cc1c(O)c(CC=C(C)C)c2c(c1O)C(=O)C1=C[C@@H]3C[C@H]4C(C)(C)O[C@@](C/C=C(/C)C=O)(C3=O)[C@@]14O2 [Xanthone 7, gambogenin] | 3.26 µM | 4.88 µM | 1.3 µM | 6.51 µM | 1.04 µM | displayed antiangiogenic activity | 32 µM |  |  |  |  |  | remarkable inhibition |  |  | 0 |  | 6 per 10 s | Heart Rate (zebrafish embryos [3]; [16]): 6 per 10 s; Heart Rate (zebrafish embryos [3]; [17]): 5 per 10 s |
| CC(C)=CCCC1(C)C=Cc2c(O)c3c(c(CC=C(C)C)c2O1)O[C@]12C(=C[C@@H]4C[C@H]1C(C)(C)O[C@@]2(C/C=C(\C)C(=O)O)C4=O)C3=O (stereo partly drawn) [Xanthone 8, isogambogic acid] | 4.77 µM | 2.86 µM | 1.59 µM | 6.37 µM | 0.91 µM |  |  |  | 0 | 1/8 | 17 per 10 s | 13 per 10 s |  |  |  | 6/8 |  | 6 per 10 s |  |
| CC(C)=CCC/C(C)=C/Cc1c(O)c(CC=C(C)C)c2c(c1O)C(=O)C1=C[C@@H]3C[C@H]4C(C)(C)O[C@@](C/C=C(\C)C(=O)O)(C3=O)[C@@]14O2 [Xanthone 9, isogambogenic acid] | 6.35 µM | 12.7 µM | 11.7 µM | 6.35 µM | 1.73 µM | displayed antiangiogenic activity | 4 µM |  | 0 | 0 |  |  | remarkable inhibition | 8 per 10 s | 5 per 10 s | 8/8 | 0 per 10 s |  | Concentration that caused the death of all zebrafish embryos (zebrafish embryos [2]): 8 µM |
| CC(C)=CCc1c2c(c(O)c3c1O[C@]14C(=C[C@@H]5C[C@H]1C(C)(C)O[C@@]4(CC=C(C)C)C5=O)C3=O)C=CC(C)(C)O2 [Xanthone 10, desoxymorellin] |  |  |  |  |  |  |  | 0 | 0 | 0 |  |  |  | 17 per 10 s | 16 per 10 s | 0 | 16 per 10 s |  | IC50 (HeLa): 2.6 µM; IC50 (A549; A549, read-out: IC50 A549): 2.05 µM; IC50 (HCT-116; [13]): 1.2 µM; IC50 (HepG-2; HepG2, read-out: IC50 HepG-2): 1 µM; IC50 (HUVEC cell line): 0.9 µM; Heart Rate (zebrafish embryos [3]; [10]): 20 per 10 s |
| CC(C)=CCC/C(C)=C/Cc1c(O)c(CC=C(C)C)c2c(c1O)C(=O)C1=C[C@@H]3C[C@H]4C(C)(C)O[C@@](CC=C(C)C)(C3=O)[C@@]14O2 [Xanthone 11, desoxygambogenin] |  |  |  |  |  |  |  | 0 | 0 | 0 |  |  |  | 21 per 10 s | 21 per 10 s | 0 | 20 per 10 s |  | IC50 (HeLa): 2.95 µM; IC50 (A549; A549, read-out: IC50 A549): 1.8 µM; IC50 (HCT-116; [13]): 1.35 µM; IC50 (HepG-2; HepG2, read-out: IC50 HepG-2): 1.15 µM; IC50 (HUVEC cell line): 1.6 µM; Heart Rate (zebrafish embryos [3]; [10]): 21 per 10 s |
